Assay results: patent publication US20260094266A1, “DIGITAL SYSTEM FOR CELL ASSAYS USING LABEL FREE MICROSCOPY” (NANOLIVE SA, priority 2022, published 2026)

Columns and labels:
Type in all cases: cell-based
[1] = tested on: 3T3-L1-derived preadipocyte cells; test: LCDA quantification of Ebastin-induced cell death in 3T3-L1-derived preadipocytes; details: 20 μM Ebastin added 1 hour before acquisition; versus untreated cells
Protocol: It was finally concluded by quantifying the capacity of another drug to kill cells, Ebastin, to validate the simplest of the uses of the LCDA. 3T3-L1-derived preadipocyte cells were seeded in 35 mm dish at ˜30,000 cells/ml and let to grow for 48 h in DMEM supplemented with 10% FBS.

HeLa cells = test: LCDA quantification of Ebastine-induced cell death in HeLa cells (FIG. 7); details: 50 uM Ebastin, treated right before acquisition; versus control well; 5 h post treatment
Description: FIG. 7: Application of LCDA to quantify Ebastine-induced cell death—HeLa cells grown in two wells were used as (A) control and (B) treatment experiment.

[2] = tested on: 3T3-L1-derived preadipocyte cells; test: Live cell death assay (LCDA) benchmarked with live fluorescent cell death kit, camptothecin treatment; details: 2.5 μM camptothecin added 4 hours before acquisition; imaged for 17.5 hours; versus without camptothecin
Description: To validate the performance of the LCDA, the invention method was benchmarked with a state-of-the-art live fluorescent kit (FIG. 6). 3t3-derived preadipocytes were imaged on an optical diffraction tomography system combining RI recording and epifluorescence, with and without addition of camptothecin, a proapoptotic drug (FIG. 6). Annexin V-Cy5 and Nuclear Green DCS1 were used as fluorescent markers to detect apoptosis and necrosis, respectively. The RI images of the kit-stained cells were also analyzed with the LCDA. The cell death information provided by the fluorescent signals contained within the RI segmentation masks was then compared, with the LCDA results (FIG. 6, E and F).
3T3-L1-derived preadipocyte cells were seeded in a 35 mm dish at ˜30,000 cells/ml and let to grow for 48 h in DMEM supplemented with 10% FBS. 4 hours before starting the acquisition, the cells were treated with 2.5 μM camptothecin (abcam—ab120115) to induce apoptosis. 10 minutes before starting the acquisition, Annexin V-Cy5 and Nuclear Green DCS1 (abcam—ab14147, ab138905) were added to the medium, following the supplier's protocol. […]
RI images were then analyzed and plotted with the LCDA module's features. Fluorescence was quantified by measuring the mean intensity in each cell using RI segmentations using an independent image analysis tool. […]

| Structure (SMILES) | induced cell death over time (LCDA) [1] | number of dead cells predicted over time (cell death rate) (HeLa cells) | death of cells (LCDA and Annexin V-Cy5 / Nuclear Green DCS1 fluorescence) [2] |
| --- | --- | --- | --- |
| CC(C)(C)c1ccc(C(=O)CCCN2CCC(OC(c3ccccc3)c3ccccc3)CC2)cc1 [Ebastin] | treated cells show a very clear curve of induced cell death | higher cell death rate in the treated condition already at 5 h post treatment |  |
| CC[C@@]1(O)C(=O)OCc2c1cc1n(c2=O)Cc2cc3ccccc3nc2-1 [camptothecin] |  |  | accelerates greatly the death of cells and results in the whole cell population dying by the end of the experiment |
